Data set [1] deals with Pyrenophora teres. Put plainly: In vivo preventive test on Pyrenophora teres (barley). As to conditions: preventive spray, 500 ppm of active ingredient, evaluated 7-9 days after inoculation. The procedure:
In Vivo Preventive Test on Pyrenophora teres (Barley)
Solvent: 49 parts by weight of N,N-dimethylacetamid
Emulsifier: 1 part by weight of alkylaryl polyglycol ether
(§1) To produce a suitable preparation of active compound, 1 part by weight of active compound is mixed with the stated amounts of solvent and emulsifier, and the concentrate is diluted with water to the desired concentration.
To test for preventive activity, young plants are sprayed with the preparation of active compound at the stated rate of application. One day after this treatment, the plants are inoculated with an aqueous spore suspension of Pyrenophora teres. The plants remain for 48 hours in an incubation cabinet at 22° C. and a relative atmospheric humidity of 100%. Then the plants are placed in a greenhouse at a temperature of approximately 20° C. and a relative atmospheric humidity of approximately 80%.
The test is evaluated 7-9 days after the inoculation. 0% means an efficacy which corresponds to that of the untreated control while an efficacy of 100% means that no disease is observed.

A short description of data set [2]: log P by HPLC on reversed-phase column (EEC Directive 79/831 Annex V.A8). The data set is classed as physicochemical. As to conditions: 0.1% aqueous formic acid and acetonitrile, linear gradient 10% to 90% acetonitrile. The method, then: In table 1, the log P values were determined in accordance with EEC Directive 79/831 Annex V.A8 by HPLC (High Performance Liquid Chromatography) on a reversed-phase column (C 18), using the method described below: Temperature: 40° C.; Mobile phases: 0.1% aqueous formic acid and acetonitrile; linear gradient from 10% acetonitrile to 90% acetonitrile. Calibration was carried out using unbranched alkan-2-ones (comprising 3 to 16 carbon atoms) with known log P values (determination of the log P values by the retention times using linear interpolation between two successive alkanones). lambda-max-values were determined using UV-spectra from 200 nm to 400 nm and the peak values of the chromatographic signals.

Data set [3] concerns Alternaria solani. Put plainly: In vivo preventive test on Alternaria solani (tomato). The conditions noted are these: preventive spray, 500 ppm of active ingredient, evaluated 7 days after inoculation. The procedure: In Vivo Preventive Test on Alternaria Solani (Tomato)
Solvent: 49 parts by weight of N,N-dimethylformamide
Emulsifier: 1 part by weight of alkylarylpolyglycolether
as §1
To test for preventive activity, young plants are sprayed with the preparation of active compound at the stated rate of application. One day after this treatment, the plants are inoculated with an aqueous spore suspension of Alternaria solani. The plants remain for one day in an incubation cabinet at approximately 22° C. and a relative atmospheric humidity of 100%. Then the plants are placed in an incubation cabinet at approximately 20° C. and a relative atmospheric humidity of 96%.
The test is evaluated 7 days after the inoculation. 0% means an efficacy which corresponds to that of the untreated control while an efficacy of 100% means that no disease is observed.

Where [4] appears, read: HPLC on reversed-phase column (C 18), 40° C.
Setting [5] is: HPLC, reversed-phase C 18, 40° C.

Broadly, the logP is the decadic logarithm of the partition coefficient of the neutral form, usually between octanol and water.

Compound `CC(c1ncc(Cl)cc1Cl)N(C(=O)c1c(C(F)F)nn(C)c1Cl)C1CCCC1` (stereo not drawn) [Example 188] registered an Efficacy in data set [1] of 95%. In addition, in data set [2] (setting [4]), the logP was 4.67.
In data set [1], `CC(C)N(Cc1c(Cl)cccc1C(F)(F)F)C(=O)c1c(C(F)F)nn(C)c1F` [Example 92] returned an Efficacy of 70%. This compound had a logP in data set [2] (setting [5]) of 3.61.
`CN(Cc1ccccc1Br)C(=O)c1c(C(F)F)nn(C)c1Cl` [Example 104]: the Efficacy in data set [1] was found to be 78%. In data set [2] (setting [5]), this compound showed a logP of 2.90.
In turn, `COc1ccc(C2(NC(=O)c3c(C(F)F)nn(C)c3F)CCCC2)cc1` [Example 133] returned an Efficacy in data set [1] of 95%. The compound further yielded a logP in data set [2] (setting [4]) of 3.06.
Consider `C#CCN(Cc1c(Cl)cccc1C(F)(F)F)C(=O)c1c(C(F)F)nn(C)c1F` [Example 93], for which the Efficacy in data set [1] came to 95%. The same compound registered a logP in data set [2] (setting [5]) of 3.05.
With `CN(Cc1cccc(Oc2ccccc2)c1)C(=O)c1c(C(F)F)nn(C)c1F` [Example 150], the values for the Efficacy in data set [3] and in data set [1] were 70% and 100%, respectively. This compound also yielded a logP in data set [2] (setting [4]) of 3.31.
For the compound `CC(c1ccccc1Cl)N(C)C(=O)c1c(C(F)F)nn(C)c1Cl` (racemic) [Example 27], the Efficacy was found to be 80% in data set [3] and 100% in data set [1]. For the same compound, the logP in data set [2] (setting [5]) is 2.84.
Take `CC(c1ccc(Oc2ccccc2)cc1)N(C)C(=O)c1c(C(F)F)nn(C)c1Cl` (racemic) [Example 153]: the Efficacy in data set [3] worked out at 90%; in data set [1] it was 80%. The log partition coefficient (logP) in data set [2] (setting [4]) was found to be 3.76.
Turning to `Cn1nc(C(F)F)c(C(=O)NC2(c3ccc(C(F)(F)F)cc3)CCCC2)c1F` [Example 121], the Efficacy in data set [3] turned out to be 70%; in data set [1] it was 94%. Moreover, the lipophilicity (logP) in data set [2] (setting [4]) was 3.72.
Turning to `CC(NC(=O)c1c(C(F)F)nn(C)c1Cl)c1ccccc1` (racemic) [Example 1], the Efficacy in data set [3] and in data set [1] was 95% throughout. The same compound came in with a log partition coefficient (logP) in data set [2] (setting [5]) of 2.49.
In turn, `Cn1nc(C(F)F)c(C(=O)N(Cc2cccc(Oc3ccccc3)c2)C2COC2)c1Cl` [Example 147] showed an Efficacy in data set [3] of 70%. The compound also registered a logP in data set [2] (setting [4]) of 3.19.
Turning to `Cn1nc(C(F)F)c(C(=O)NC(c2ccccc2Cl)C(F)(F)F)c1F` (racemic) [Example 23], the Efficacy in data set [3] amounted to 89%. In data set [2] (setting [5]), this compound displayed a logP of 3.21.
The compound `CN(Cc1cccc(Oc2ccccc2)c1)C(=O)c1c(C(F)F)nn(C)c1Cl` [Example 149] registered an Efficacy in data set [1] of 70%. In data set [2] (setting [4]), this compound gave a logP of 3.46.
With `Cn1nc(C(F)F)c(C(=O)NCc2ccc(Oc3ccccc3)cc2)c1F` [Example 152], the Efficacy in data set [3] is 89%; in data set [1] it was 95%. In data set [2] (setting [4]), this compound registered a logP of 3.23.
In the case of `CC(NC(=O)c1c(C(F)F)nn(C)c1Cl)c1ccc(OCc2ccccc2)cc1` (racemic) [Example 159], the Efficacy in data set [1] was 95%. The logP in data set [2] (setting [4]) is 3.58.
The matching figures for `CON(Cc1ncc(Cl)cc1Cl)C(=O)c1c(C(F)F)nn(C)c1Cl` [Example 182]: 95% and 2.88.
`CON(C(=O)c1c(C(F)F)nn(C)c1Cl)C(C)c1ccc(Cl)cc1Cl` (stereo not drawn) [Example 46]: the Efficacy in data set [3] and in data set [1] was 100% throughout. Further, the log partition coefficient (logP) in data set [2] (setting [5]) is recorded as 3.81.
In data set [3], `Cn1nc(C(F)F)c(C(=O)NC2CCc3ccccc32)c1Cl` (stereo not drawn) [Example 137] came in with an Efficacy of 89%. For the same compound, in data set [2] (setting [4]), the logP came out at 2.73.
On to `CC(NC(=S)c1c(C(F)F)nn(C)c1Cl)c1ccccc1C(F)(F)F` (stereo not drawn) [Example 85], for which the Efficacy in data set [3] came out at 95%; in data set [1] it was 100%. Further, the lipophilicity (logP) in data set [2] (setting [5]) is given as 3.55.
The compound `CN(Cc1ccc(Cl)cc1Cl)C(=O)c1c(C(F)F)nn(C)c1F` [Example 43] showed an Efficacy in data set [1] of 100%. In data set [2] (setting [5]), this compound showed a lipophilicity (logP) of 3.19.
For the compound `CN(Cc1ccccc1Br)C(=O)c1c(C(F)F)nn(C)c1F` [Example 105], the Efficacy in data set [3] was determined as 95%; in data set [1], 94%. In data set [2] (setting [4]), this compound came in with a logP of 2.71.
`CN(Cc1ccc(Oc2ccc(Cl)cc2)cc1)C(=O)c1c(C(F)F)nn(C)c1Cl` [Example 157]: in data set [1], the Efficacy was 90%. Further, the logP in data set [2] (setting [4]) is listed as 3.96.
In the case of `CN(Cc1c(Cl)cccc1Cl)C(=O)c1c(C(F)F)nn(C)c1F` [Example 62], the Efficacy in data set [1] is given as 100%. The compound also gave a logP in data set [2] (setting [5]) of 2.82.
`Cn1nc(C(F)F)c(C(=O)NCc2ncc(C(F)(F)F)cc2Cl)c1F` [Example 176] came in with an Efficacy in data set [3] of 70%. Besides, the lipophilicity (logP) in data set [2] (setting [4]) was 2.76.
Consider `CC(NC(=O)c1c(C(F)F)nn(C)c1F)c1ccc(C2CCCCC2)cc1` (stereo not drawn) [Example 129], for which the Efficacy in data set [1] was 100%. In data set [2] (setting [4]), this compound returned a logP of 4.34.
As for `CC(C)c1ccc(Cl)cc1CN(CC(F)F)C(=O)c1c(C(F)F)nn(C)c1F` [Example 80], the Efficacy in data set [1] is reported as 100%. The logP in data set [2] (setting [5]) amounted to 3.81.
As for `C=CCN(Cc1ccccc1CC)C(=O)c1c(C(F)F)nn(C)c1F` [Example 16], the Efficacy in data set [3] is reported as 80%; in data set [1], 100%. In addition, the logP in data set [2] (setting [5]) turned out to be 3.36.
Turning to `Cn1nc(C(F)F)c(C(=O)NCc2ccccc2C(F)(F)F)c1F` [Example 81], the Efficacy in data set [3] was 90%. The same compound came in with a log partition coefficient (logP) in data set [2] (setting [5]) of 2.76.
Turning to `CC(C)c1ccccc1CN(CC#N)C(=O)c1c(C(F)F)nn(C)c1F` [Example 67], the Efficacy in data set [1] is 90%. This compound also came in with a logP in data set [2] (setting [5]) of 2.94.
`Cn1nc(C(F)F)c(C(=O)NCc2ccc(Cl)cc2)c1F` [Example 127] gave an Efficacy in data set [3] of 90%. In data set [2] (setting [4]), this compound yielded a logP of 2.55.
As for `Cn1nc(C(F)F)c(C(=O)NCc2cccc(Oc3ccccc3)c2)c1F` [Example 145], in data set [3], the Efficacy is listed as 90%. In data set [2] (setting [4]), this compound had a logP of 3.23.
For the compound `C=CCN(Cc1c(Cl)cccc1C(F)(F)F)C(=O)c1c(C(F)F)nn(C)c1F` [Example 94], the Efficacy in data set [1] is reported as 80%. Besides, the logP in data set [2] (setting [5]) is recorded as 3.37.
Regarding `Cn1nc(C(F)F)c(C(=O)NCc2ccccc2Oc2ccccc2)c1F` [Example 144], the Efficacy in data set [3] stood at 89%. This compound also came in with a logP in data set [2] (setting [4]) of 3.25.
As to `Cc1cccc(C)c1CN(C)C(=O)c1c(C(F)F)nn(C)c1Cl` [Example 5], the Efficacy in data set [1] worked out at 89%. Moreover, the logP in data set [2] (setting [5]) was 3.02.
Turning to `CN(Cc1cc(Cl)ccn1)C(=O)c1c(C(F)F)nn(C)c1F` [Example 174], the Efficacy in data set [1] was 75%. In addition, in data set [2] (setting [4]), the log partition coefficient (logP) turned out to be 1.84.
The compound `Cn1nc(C(F)F)c(C(=O)NCc2ccccc2C(F)(F)F)c1Cl` [Example 83] registered an Efficacy in data set [3] of 90%. The compound further gave a logP in data set [2] (setting [5]) of 2.96.
In data set [3], `Cn1nc(C(F)F)c(C(=O)N(CC#N)Cc2c(Cl)cccc2C(F)(F)F)c1F` [Example 88] had an Efficacy of 80%. The compound also displayed a logP in data set [2] (setting [5]) of 2.68.
For the compound `Cc1cccc(C)c1CN(C)C(=O)c1c(C(F)F)nn(C)c1F` [Example 6], the Efficacy in data set [1] is reported as 78%. Besides, in data set [2] (setting [5]), the logP was 2.84.
The corresponding values for `CC(c1c(Cl)cccc1Cl)N(C)C(=O)c1c(C(F)F)nn(C)c1F` (stereo not drawn) [Example 64] are 95% and 3.13.
In turn, `Cn1nc(C(F)F)c(C(=O)NC2CCc3ccccc32)c1F` (stereo not drawn) [Example 138] returned an Efficacy in data set [3] of 94%. In data set [2] (setting [4]), this compound showed a logP of 2.57.
For `Cn1nc(C(F)F)c(C(=O)N(Cc2cc(Cl)ccc2C(F)(F)F)C2CSC2)c1F` [Example 87], in data set [1], the Efficacy is 95%. In data set [2] (setting [5]), this compound gave a lipophilicity (logP) of 3.92.
As for `Cn1nc(C(F)F)c(C(=O)NC2(c3ccc(Cl)cc3Cl)CC2)c1Cl` [Example 41], the Efficacy in data set [3] came to 80%. Also, the logP in data set [2] (setting [5]) stood at 3.89.
In the case of `Cn1nc(C(F)F)c(C(=O)NCc2ccc(Cl)cc2Cl)c1F` [Example 37], the Efficacy in data set [3] was 94%. The same compound displayed a log partition coefficient (logP) in data set [2] (setting [5]) of 4.19.
The compound `CCOc1ccc(C2(NC(=O)c3c(C(F)F)nn(C)c3F)CCCC2)cc1` [Example 131] had an Efficacy in data set [1] of 94%. In data set [2] (setting [4]), this compound displayed a logP of 3.44.
`CN(Cc1c(Cl)cccc1Cl)C(=O)c1c(C(F)F)nn(C)c1Cl` [Example 61] registered an Efficacy in data set [1] of 100%. This compound came in with a logP in data set [2] (setting [5]) of 3.02.
In data set [3], `Cn1nc(C(F)F)c(C(=O)NCc2cc(Cl)ccc2Cl)c1F` [Example 54] displayed an Efficacy of 89%. In data set [2] (setting [5]), the logP is 4.19.

The values are drawn from patent US9084424B2, “N-benzyl heterocyclic carboxamides” (BAYER INTELLECTUAL PROPERTY GMBH, priority 2010, dated 2015).
